ChEMBL document CHEMBL3611970, “Synthesis and evaluation of isatin-β-thiosemicarbazones as novel agents against antibiotic-resistant Gram-positive bacterial species” (2015)
≈ marks a conversion by molar mass, not a printed value.

Legend:
Format in all cases: functional
[1] = tested on: Enterococcus faecalis; assay: Antimicrobial activity against Enterococcus faecalis VRE-309 after 16 hrs by broth microdilution method; conditions: VRE-309, 16 h
[2] = tested on: Staphylococcus aureus; assay: Antimicrobial activity against methicillin-resistant Staphylococcus aureus 309-7 clinical isolate after 16 hrs by broth microdilution method; conditions: 309-7, 16 h
[3] = tested on: Staphylococcus aureus; assay: Antimicrobial activity against methicillin-resistant Staphylococcus aureus 6281 clinical isolate after 16 hrs by broth microdilution method; conditions: Staphylococcus aureus, 6281, 16 h
[4] = tested on: Staphylococcus aureus; assay: Antimicrobial activity against methicillin-resistant Staphylococcus aureus 6-42 clinical isolate after 16 hrs by broth microdilution method; conditions: 6-42, 16 h
[5] = tested on: Klebsiella pneumoniae; assay: Antimicrobial activity against Klebsiella pneumoniae KP-249 clinical isolate after 16 hrs by broth microdilution method; conditions: KP-249, 16 h
[6] = tested on: Staphylococcus aureus; assay: Antimicrobial activity against methicillin-resistant Staphylococcus aureus Chaoyang clinical isolate after 16 hrs by broth microdilution method
[7] = tested on: Staphylococcus aureus; assay: Antimicrobial activity against Staphylococcus aureus ATCC 6538 after 16 hrs by broth microdilution method; conditions: ATCC 6538, 16 h
[8] = tested on: Enterococcus faecalis; assay: Antimicrobial activity against vancomycin-susceptible Enterococcus faecalis after 16 hrs by broth microdilution method
[9] = tested on: Staphylococcus aureus; assay: Antimicrobial activity against methicillin-resistant Staphylococcus aureus 309-6 clinical isolate after 16 hrs by broth microdilution method; conditions: 309-6, 16 h
[10] = tested on: Staphylococcus aureus; assay: Antimicrobial activity against methicillin-resistant Staphylococcus aureus 309-8 clinical isolate after 16 hrs by broth microdilution method; conditions: 309-8, 16 h
[11] = tested on: Staphylococcus aureus; assay: Antimicrobial activity against methicillin-resistant Staphylococcus aureus 309-3 clinical isolate after 16 hrs by broth microdilution method; conditions: 309-3, 16 h
[12] = tested on: Staphylococcus aureus; assay: Antimicrobial activity against methicillin-resistant Staphylococcus aureus 309-4 clinical isolate after 16 hrs by broth microdilution method; conditions: 309-4, 16 h
[13] = tested on: Bacillus spizizenii; assay: Antimicrobial activity against Bacillus subtilis ATCC 6633 after 16 hrs by broth microdilution method; conditions: ATCC 6633, 16 h
[14] = tested on: Staphylococcus aureus; assay: Antimicrobial activity against methicillin-resistant Staphylococcus aureus 309-1 clinical isolate after 16 hrs by broth microdilution method; conditions: 309-1, 16 h
[15] = tested on: Pseudomonas aeruginosa; assay: Antimicrobial activity against Pseudomonas aeruginosa PAO1 after 16 hrs by broth microdilution method; conditions: PAO1, 16 h
[16] = tested on: Staphylococcus aureus; assay: Antimicrobial activity against methicillin-resistant Staphylococcus aureus 8-24 clinical isolate after 16 hrs by broth microdilution method; conditions: 8-24, 16 h
[17] = tested on: Staphylococcus aureus; assay: Antimicrobial activity against methicillin-resistant Staphylococcus aureus 8-21 clinical isolate after 16 hrs by broth microdilution method; conditions: 8-21, 16 h

SMILES | MIC [1] [µg/mL] | MIC [2] [µg/mL] | MIC [3] [µg/mL] | MIC [4] [µg/mL] | MIC [5] [µg/mL] | MIC [6] [µg/mL] | MIC [7] [µg/mL] | MIC [8] [µg/mL] | MIC [9] [µg/mL] | MIC [10] [µg/mL] | MIC [11] [µg/mL] | MIC [12] [µg/mL] | MIC [13] [µg/mL] | MIC [14] [µg/mL] | MIC [15] [µg/mL] | MIC [16] [µg/mL] | MIC [17] [µg/mL]
COc1ccc(NC(=S)N/N=C2\C(=O)Nc3c(Br)cccc32)cc1 | > 100 | 0.78 (≈ 1.92 µM) | 6.25 (≈ 15.4 µM) | 0.78 (≈ 1.92 µM) | > 100 | 0.78 (≈ 1.92 µM) | 6.25 (≈ 15.4 µM) | > 100 | 6.25 (≈ 15.4 µM) | 1.56 (≈ 3.85 µM) | 3.12 (≈ 7.7 µM) | 1.56 (≈ 3.85 µM) | ≤ 0.78 | 1.56 (≈ 3.85 µM) | > 100 | 1.56 (≈ 3.85 µM) | 1.56 (≈ 3.85 µM)
Cc1ccccc1NC(=S)N/N=C1\C(=O)Nc2c(F)cccc21 | 6.25 (≈ 19 µM) | 1.56 (≈ 4.75 µM) | 3.12 (≈ 9.5 µM) | 1.56 (≈ 4.75 µM) | > 100 | 1.56 (≈ 4.75 µM) | 3.12 (≈ 9.5 µM) | 6.25 (≈ 19 µM) | 3.12 (≈ 9.5 µM) | 1.56 (≈ 4.75 µM) | 3.12 (≈ 9.5 µM) | 1.56 (≈ 4.75 µM) | ≤ 0.78 | 1.56 (≈ 4.75 µM) | > 100 | 1.56 (≈ 4.75 µM) | 1.56 (≈ 4.75 µM)
O=C1Nc2c(I)cccc2/C1=N/NC(=S)Nc1ccccc1F | 6.25 (≈ 14.2 µM) | 0.78 (≈ 1.77 µM) | 6.25 (≈ 14.2 µM) | 0.78 (≈ 1.77 µM) | > 100 | 0.78 (≈ 1.77 µM) | 3.12 (≈ 7.09 µM) | 12.5 (≈ 28.4 µM) | 3.12 (≈ 7.09 µM) | 1.56 (≈ 3.54 µM) | 3.12 (≈ 7.09 µM) | 1.56 (≈ 3.54 µM) | ≤ 0.78 | 1.56 (≈ 3.54 µM) | > 100 | 1.56 (≈ 3.54 µM) | 1.56 (≈ 3.54 µM)
O=C1Nc2c(F)cccc2/C1=N/NC(=S)Nc1ccc(F)cc1 | 3.12 (≈ 9.39 µM) | 1.56 (≈ 4.69 µM) | 3.12 (≈ 9.39 µM) | 1.56 (≈ 4.69 µM) | > 100 | 0.78 (≈ 2.35 µM) | 1.56 (≈ 4.69 µM) | 3.12 (≈ 9.39 µM) | 3.12 (≈ 9.39 µM) | 1.56 (≈ 4.69 µM) | 1.56 (≈ 4.69 µM) | 1.56 (≈ 4.69 µM) | 1.56 (≈ 4.69 µM) | 1.56 (≈ 4.69 µM) | > 100 | 1.56 (≈ 4.69 µM) | 1.56 (≈ 4.69 µM)
COc1cccc(NC(=S)N/N=C2\C(=O)Nc3c(Cl)cccc32)c1 | > 100 | 0.78 (≈ 2.16 µM) | 6.25 (≈ 17.3 µM) | 0.78 (≈ 2.16 µM) | > 100 | 0.78 (≈ 2.16 µM) | 3.12 (≈ 8.65 µM) | > 100 | 3.12 (≈ 8.65 µM) | 1.56 (≈ 4.32 µM) | 1.56 (≈ 4.32 µM) | 0.78 (≈ 2.16 µM) | ≤ 0.78 | 1.56 (≈ 4.32 µM) | > 100 | 1.56 (≈ 4.32 µM) | 1.56 (≈ 4.32 µM)
Cc1ccccc1NC(=S)N/N=C1\C(=O)Nc2c(I)cccc21 | 6.25 (≈ 14.3 µM) | 1.56 (≈ 3.58 µM) | 6.25 (≈ 14.3 µM) | 0.78 (≈ 1.79 µM) | > 100 | 0.78 (≈ 1.79 µM) | 3.12 (≈ 7.15 µM) | 12.5 (≈ 28.7 µM) | 6.25 (≈ 14.3 µM) | 3.12 (≈ 7.15 µM) | 3.12 (≈ 7.15 µM) | 1.56 (≈ 3.58 µM) | ≤ 0.78 | 3.12 (≈ 7.15 µM) | > 100 | 3.12 (≈ 7.15 µM) | 1.56 (≈ 3.58 µM)
O=C1Nc2c(Br)cccc2/C1=N/NC(=S)Nc1ccc(F)cc1 | 1.56 (≈ 3.97 µM) | 0.39 (≈ 0.992 µM) | 1.56 (≈ 3.97 µM) | 0.78 (≈ 1.98 µM) | > 100 | 0.39 (≈ 0.992 µM) | 1.56 (≈ 3.97 µM) | 3.12 (≈ 7.93 µM) | 1.56 (≈ 3.97 µM) | 0.78 (≈ 1.98 µM) | 0.78 (≈ 1.98 µM) | 0.78 (≈ 1.98 µM) | ≤ 0.78 | 0.78 (≈ 1.98 µM) | > 100 | 1.56 (≈ 3.97 µM) | 0.78 (≈ 1.98 µM)
COc1ccc(NC(=S)N/N=C2\C(=O)Nc3c(Cl)cccc32)cc1 | > 100 | 1.56 (≈ 4.32 µM) | 6.25 (≈ 17.3 µM) | 1.56 (≈ 4.32 µM) | > 100 | 1.56 (≈ 4.32 µM) | 6.25 (≈ 17.3 µM) | > 100 | 6.25 (≈ 17.3 µM) | 3.12 (≈ 8.65 µM) | 3.12 (≈ 8.65 µM) | 1.56 (≈ 4.32 µM) | ≤ 0.78 | 3.12 (≈ 8.65 µM) | > 100 | 3.12 (≈ 8.65 µM) | 3.12 (≈ 8.65 µM)
O=C1Nc2c(I)cccc2/C1=N/NC(=S)Nc1cccc(Cl)c1 | 3.12 (≈ 6.83 µM) | 3.12 (≈ 6.83 µM) | 6.25 (≈ 13.7 µM) | 3.12 (≈ 6.83 µM) | > 100 | 0.78 (≈ 1.71 µM) | 3.12 (≈ 6.83 µM) | 12.5 (≈ 27.4 µM) | 6.25 (≈ 13.7 µM) | 6.25 (≈ 13.7 µM) | 3.12 (≈ 6.83 µM) | 1.56 (≈ 3.42 µM) | ≤ 0.78 | 3.12 (≈ 6.83 µM) | > 100 | 3.12 (≈ 6.83 µM) | 6.25 (≈ 13.7 µM)
